Laboratory results as given in patent US10336702B2, “Pharmaceutically active compounds” (BERGENBIO ASA, priority 2015, dated 2019).

What was measured:
Akt3 = molecular target: T1, Akt3 (Homo sapiens, UniProt Q9Y243); test: Akt activation assay (PDK1-mediated activation, LANCE Ultra crosstide TR-FRET), Akt3; assay type: biochemical; settings: read-out: Biological Assay 1 IC50 (nM) Akt3
T1 construct: unspecified tag, removed (detagged) (cleaved yes); purchased SignalChem and Proteros (Akt3); Merck Millipore (PDK1) 14-452 (PDK1); none given for Akt3
T1 sequence (Q9Y243 whole entry): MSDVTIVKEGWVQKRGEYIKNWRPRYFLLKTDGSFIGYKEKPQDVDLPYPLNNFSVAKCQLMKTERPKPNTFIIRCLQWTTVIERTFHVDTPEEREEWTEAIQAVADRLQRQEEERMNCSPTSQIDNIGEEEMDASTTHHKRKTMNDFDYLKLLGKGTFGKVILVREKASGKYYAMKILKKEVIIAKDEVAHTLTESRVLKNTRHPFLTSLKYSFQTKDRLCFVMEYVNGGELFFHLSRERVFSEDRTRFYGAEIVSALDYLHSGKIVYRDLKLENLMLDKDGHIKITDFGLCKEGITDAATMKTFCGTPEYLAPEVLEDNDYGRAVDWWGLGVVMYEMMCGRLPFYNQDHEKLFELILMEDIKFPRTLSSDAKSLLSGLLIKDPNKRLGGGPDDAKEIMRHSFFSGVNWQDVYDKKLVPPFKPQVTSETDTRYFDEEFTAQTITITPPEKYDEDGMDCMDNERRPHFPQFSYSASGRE
Summary of the method: (§1)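 Compound + Akt preinc.; start w/ PDK1 5 nM, DOPS/DOPC 5.5 μM each, PIP3 0.55 μM, ATP 100 μM, Ulight-crosstide 100 nM; HEPES pH 7.5, 10 mM MgCl2, 2 mM DTT, 1% DMSO; 30 min; EDTA stop; Eu-Ab TR-FRET; 4-PL IC50.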

p-Akt3 in WM115 cells = molecular target: T2, p-Akt3 in WM115 cells (Homo sapiens, UniProt Q9Y243); test: Phospho-Akt cellular SureFire assay, p-Akt3 in WM115 cells; assay type: cell-based; settings: insulin stimulated, read-out: Biological Assay 2 IC50 (nM) Akt3 WM115
T2 construct: SureFire assays to detect cellular p-Akt1, p-Akt2 and p-Akt3 levels in WM115 cells (Akt2/3) and LNCaP cells (Akt1); endogenous in cells; host or cells: WM115 (ECACC 91061232), insulin-stimulated
T2 sequence (Q9Y243 whole entry): as above
Summary of the method: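 WM115 cells were serum-reduced to 0.1% FBS, stimulated with 100 nM insulin for 10 min, then exposed to compound (0.3% DMSO) for 15 min at 37 °C. Lysates were assayed for Thr308-phosphorylated Akt3 by AlphaScreen SureFire using an isoform-specific total Akt3 capture antibody. IC50 was derived from a 4-parameter fit.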

p-Akt1 in LNCaP cells = molecular target: T3, p-Akt1 in LNCaP cells (Homo sapiens, UniProt P31749); test: Phospho-Akt cellular SureFire assay, p-Akt1 in LNCaP cells; assay type: cell-based; settings: read-out: Biological Assay 2 IC50 (nM) Akt1 LNCaP
T3 construct: SureFire assays to detect cellular p-Akt1, p-Akt2 and p-Akt3 levels in WM115 cells (Akt2/3) and LNCaP cells (Akt1); endogenous in cells; host or cells: LNCaP (ECACC 89110211)
T3 sequence (P31749 whole entry): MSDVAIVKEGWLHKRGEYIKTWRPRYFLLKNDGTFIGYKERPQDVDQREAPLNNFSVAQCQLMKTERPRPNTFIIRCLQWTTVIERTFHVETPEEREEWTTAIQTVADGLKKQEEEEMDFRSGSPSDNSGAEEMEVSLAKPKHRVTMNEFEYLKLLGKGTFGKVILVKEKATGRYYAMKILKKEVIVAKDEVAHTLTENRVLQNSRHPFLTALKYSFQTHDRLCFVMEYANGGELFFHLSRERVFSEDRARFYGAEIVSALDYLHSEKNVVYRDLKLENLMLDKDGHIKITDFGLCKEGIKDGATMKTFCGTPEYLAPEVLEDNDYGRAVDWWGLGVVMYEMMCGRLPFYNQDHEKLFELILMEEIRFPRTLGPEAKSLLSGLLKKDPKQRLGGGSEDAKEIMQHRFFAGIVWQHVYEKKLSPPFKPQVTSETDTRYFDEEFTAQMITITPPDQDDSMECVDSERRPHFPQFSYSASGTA
Summary of the method: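 LNCaP cells, 5×10^4/well, seeded overnight, switched to 0.1% FBS medium without insulin stimulation, then compound for 15 min at 37 °C (0.3% DMSO). Lysate p-Akt1 (pThr308) by AlphaScreen SureFire, two 2 h incubations at room temperature; IC50 by 4-parameter fit.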

Akt1 = molecular target: T4, Akt1 (Homo sapiens, UniProt P31749); test: Akt activation assay (PDK1-mediated activation, LANCE Ultra crosstide TR-FRET), Akt1; assay type: biochemical; settings: read-out: Biological Assay 1 IC50 (nM) Akt1
T4 construct: unspecified tag, removed (detagged) (cleaved yes); purchased SignalChem and Proteros (Akt1); Merck Millipore (PDK1) 14-452 (PDK1); none given for Akt1
T4 sequence (P31749 whole entry): as above
Summary of the method: as §1

Akt2 = molecular target: T5, Akt2 (Homo sapiens, UniProt P31751); test: Akt activation assay (PDK1-mediated activation, LANCE Ultra crosstide TR-FRET), Akt2; assay type: biochemical; settings: read-out: Biological Assay 1 IC50 (nM) Akt2
T5 construct: unspecified tag, removed (detagged) (cleaved yes); purchased SignalChem and Proteros (Akt2); Merck Millipore (PDK1) 14-452 (PDK1); none given for Akt2
T5 sequence (P31751 whole entry): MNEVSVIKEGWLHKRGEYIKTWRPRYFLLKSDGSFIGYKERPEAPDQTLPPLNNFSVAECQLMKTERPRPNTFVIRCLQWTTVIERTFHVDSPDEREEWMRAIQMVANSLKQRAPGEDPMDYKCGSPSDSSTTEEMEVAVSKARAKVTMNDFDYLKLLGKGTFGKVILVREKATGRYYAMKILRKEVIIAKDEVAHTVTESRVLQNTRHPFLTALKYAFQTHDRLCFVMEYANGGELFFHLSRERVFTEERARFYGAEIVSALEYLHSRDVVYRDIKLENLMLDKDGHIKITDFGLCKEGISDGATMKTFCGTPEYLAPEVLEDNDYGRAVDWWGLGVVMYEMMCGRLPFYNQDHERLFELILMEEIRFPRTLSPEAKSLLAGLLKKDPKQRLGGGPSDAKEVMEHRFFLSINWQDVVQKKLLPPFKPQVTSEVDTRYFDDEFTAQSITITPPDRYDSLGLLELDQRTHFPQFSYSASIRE
Summary of the method: as §1

p-Akt2 in WM115 cells = molecular target: T6, p-Akt2 in WM115 cells (Homo sapiens, UniProt P31751); test: Phospho-Akt cellular SureFire assay, p-Akt2 in WM115 cells; assay type: cell-based; settings: insulin stimulated, read-out: Biological Assay 2 IC50 (nM) Akt2 WM115
T6 construct: SureFire assays to detect cellular p-Akt1, p-Akt2 and p-Akt3 levels in WM115 cells (Akt2/3) and LNCaP cells (Akt1); endogenous in cells; host or cells: WM115 (ECACC 91061232), insulin-stimulated
T6 sequence (P31751 whole entry): as above
Summary of the method: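 WM115 cells in 0.1% FBS medium stimulated 10 min with 100 nM insulin, then exposed to compound for 15 min at 37° C (0.3% DMSO final). Lysates assayed by AlphaScreen with anti-(pThr308)Akt and isoform-specific total Akt2 antibodies; IC50 from 4-parameter fit.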

SMILES	IC50 (Akt3) [nM]	IC50 (p-Akt3 in WM115 cells) [nM]	IC50 (p-Akt1 in LNCaP cells) [nM]	IC50 (Akt1) [nM]	IC50 (Akt2) [nM]	IC50 (p-Akt2 in WM115 cells) [nM]
CCOC(=O)N(C)[C@H]1CC[C@H](CC(=O)Nc2cnc(-c3ccc([C@]4(N)C[C@](C)(O)C4)cc3)c(-c3ccccc3)c2)CC1 [Example 97, Ethyl (4-(2-((6-(4-(trans-1-amino-3-hydroxy-3-methylcyclobutyl)phenyl)-5-phenylpyridin-3-yl)amino)-2-oxoethyl)cyclohexyl)(methyl)carbamate]	5	6	880	2900	48	600
CC(=O)N(C)[C@H]1CC[C@H](CC(=O)Nc2cnc(-c3ccc(C4(N)CCC4)cc3)c(-c3ccccc3F)c2)CC1 [Example 16, N-(6-(4-(1-aminocyclobutyl)phenyl)-5-(2-fluorophenyl)pyridin-3-yl)-2-(trans-4-(N-methylacetamido)cyclohexyl)acetamide]	24	45	11000	7800	380	710
CC(=O)N(C)[C@H]1CC[C@H](CC(=O)Nc2cc(-c3ccccc3)c(-c3ccc([C@]4(N)C[C@](C)(O)C4)c(F)c3)nn2)CC1 [Example 127, N-(6-(4-(trans-1-amino-3-hydroxy-3-methylcyclobutyl)-3-fluorophenyl)-5-phenylpyridazin-3-yl)-2-(trans-4-(N-methylacetamido)cyclohexyl)acetamide]	31	42	> 30000	> 25000	2900	2900
CCN(C(=O)OC)[C@H]1CC[C@H](CC(=O)Nc2cnc(-c3ccc([C@]4(N)C[C@](C)(O)C4)cc3)c(-c3ccccc3)c2)CC1 [Example 118, Methyl (trans-4-(2-((6-(4-(trans-1-amino-3-hydroxy-3-methylcyclobutyl)phenyl)-5-phenylpyridin-3-yl)amino)-2-oxoethyl)cyclohexyl) (ethyl)carbamate]	5	6	1600	8500	110	230
CC(C)(N)c1ccc(-c2ncc(NC(=O)C[C@H]3CC[C@H](N4CCOC4=O)CC3)cc2-c2ccccc2)cc1 [Example 42, N-(6-(4-(2-aminopropan-2-yl)phenyl)-5-phenylpyridin-3-yl)-2-(trans-4-(2-oxooxazolidin-3-yl)cyclohexyl)acetamide]	960	210	> 30000	> 30000	4500	7900
CN(C)C(=O)[C@H]1CC[C@H](CC(=O)Nc2cnc(-c3ccc(C(C)(C)N)cc3)c(-c3ccccc3)c2)CC1 [Example 55, trans-4-(2-((6-(4-(2-aminopropan-2-yl)phenyl)-5-phenylpyridin-3-yl)amino)-2-oxoethyl)-N,N-dimethylcyclohexanecarboxamide]	1600	160	> 30000	> 30000	3300	3800
NC1(c2ccc(-c3cnc(NC(=O)C[C@H]4CC[C@H](N5CCOC5=O)CC4)cc3-c3ccsc3)cc2)CCC1 [Example 70, N-(5-(4-(1-aminocyclobutyl)phenyl)-4-(thiophen-3-yl)pyridin-2-yl)-2-(trans-4-(2-oxooxazolidin-3-yl)cyclohexyl)acetamide]	42	39	> 30000	> 30000	830	910
N[C@]1(c2ccc(-c3nnc(NC(=O)C[C@H]4CC[C@H](N5CCOC5=O)CC4)cc3-c3ccccc3)cc2)C[C@@H](F)C1 [Example 45, N-(6-(4-(trans-1-amino-3-fluorocyclobutyl)phenyl)-5-phenylpyridazin-3-yl)-2-(trans-4-(2-oxooxazolidin-3-yl)cyclohexyl)acetamide]	67	38	> 30000	> 17000	380	> 3600
COC1(OC)CCC(CC(=O)Nc2cnc(-c3ccc(C4(N)COC4)cc3)c(-c3ccccc3)c2)CC1 [Example 36, N-(6-(4-(3-aminooxetan-3-yl)phenyl)-5-phenylpyridin-3-yl)-2-(4,4-dimethoxycyclohexyl)acetamide]	100	230	> 30000	> 30000	> 30000	3800
CCN(C(=O)OC)[C@H]1CC[C@H](CC(=O)Nc2cc(-c3ccccc3)c(-c3ccc([C@]4(N)C[C@](C)(O)C4)cc3)nn2)CC1 [Example 129, Methyl (trans-4-(2-((6-(4-(trans-1-amino-3-hydroxy-3-methylcyclobutyl)phenyl)-5-phenylpyridazin-3-yl)amino)-2-oxoethyl)cyclohexyl) (ethyl)carbamate]	7	7	2000	11000	190	620
CC(=O)N(C)[C@H]1CC[C@H](CC(=O)Nc2cnc(-c3ccc([C@]4(N)C[C@H](F)C4)cc3)c(-c3ccccc3)c2)CC1 [Example 32, N-(6-(4-(trans-1-amino-3-fluorocyclobutyl)phenyl)-5-phenylpyridin-3-yl)-2-(trans-4-(N-methylacetamido)cyclohexyl)acetamide]	34	36	6900	2000	470	1400

The next lines start with the values.

IC50 (Akt3) [nM]	IC50 (p-Akt3 in WM115 cells) [nM]	IC50 (p-Akt1 in LNCaP cells) [nM]	IC50 (Akt1) [nM]	IC50 (Akt2) [nM]	IC50 (p-Akt2 in WM115 cells) [nM]	SMILES
290	48	760	260	350	810	C[C@]1(O)C[C@@](N)(c2ccc(-c3ncc(NC(=O)C[C@H]4CC[C@H](N5CCOCC5)CC4)cc3-c3ccccc3)cc2)C1 [Example A15, N-(6-(4-(trans-1-amino-3-hydroxy-3-methylcyclobutyl)phenyl)-5-phenylpyridin-3-yl)-2-(trans-4-morpholinocyclohexyl)acetamide]
1400	1600	> 30000	> 30000	> 27000	> 30000	COC(=O)N(C)[C@H]1CC[C@H](CC(=O)Nc2cc(-c3ccccn3)c(-c3ccc(C4(N)CC4)cc3)cn2)CC1 [Example A88, Methyl ((1r,4r)-4-(2-((5′-(4-(1-aminocyclopropyl)phenyl)-[2,4′-bipyridin]-2′-yl)amino)-2-oxoethyl)cyclohexyl)(methyl)carbamate]
23	76	7100	8100	230	2200	CCC(=O)N(C(C)C)[C@H]1CC[C@H](CC(=O)Nc2cc(-c3ccccc3)c(-c3ccc([C@]4(N)C[C@](C)(O)C4)cc3)cn2)CC1 [Example A107, N-(trans-4-(2-((5-(4-(trans-1-amino-3-hydroxy-3-methylcyclobutyl)phenyl)-4-phenylpyridin-2-yl)amino)-2-oxoethyl)cyclohexyl)-N-isopropylpropionamide]
520	1400	> 30000	> 30000	> 30000	> 30000	COC(=O)N(C)[C@H]1CC[C@H](CC(=O)Nc2cc(-c3ccsc3)c(-c3ccc(C4(N)CC4)c(F)c3)nn2)CC1 [Example A100, Methyl (trans-4-(2-((6-(4-(1-aminocyclopropyl)-3-fluorophenyl)-5-(thiophen-3-yl)pyridazin-3-yl)amino)-2-oxoethyl)cyclohexyl)(methyl)carbamate]
4	8	1400	1900	71	370	CN(C(=O)C1CC1)[C@H]1CC[C@H](CC(=O)Nc2cc(-c3ccccc3)c(-c3ccc([C@]4(N)C[C@](C)(O)C4)cc3)nn2)CC1 [Example A78, N-(trans-4-(2-((6-(4-(trans-1-amino-3-hydroxy-3-methylcyclobutyl)phenyl)-5-phenylpyridazin-3-yl)amino)-2-oxoethyl)cyclohexyl)-N-methylcyclopropanecarboxamide]
